According to PubChem BioAssay AID652082 (The Scripps Research Institute Molecular Screening Center, 2013):
Active and inactive are the calls of the source. The rule behind the calls is not given here.

Biological target: Kappa-type opioid receptor (Homo sapiens) (UniProt P41145)
Test: OPRK1 antagonists, confirmation, cell-based, fluorescence (AID 652082)
Conditions: OPRK1 cell line, fluorescence antagonist read-out; at 9 µM; hits give high values

Sequence of Kappa-type opioid receptor (Homo sapiens) (P41145 whole entry, looked up): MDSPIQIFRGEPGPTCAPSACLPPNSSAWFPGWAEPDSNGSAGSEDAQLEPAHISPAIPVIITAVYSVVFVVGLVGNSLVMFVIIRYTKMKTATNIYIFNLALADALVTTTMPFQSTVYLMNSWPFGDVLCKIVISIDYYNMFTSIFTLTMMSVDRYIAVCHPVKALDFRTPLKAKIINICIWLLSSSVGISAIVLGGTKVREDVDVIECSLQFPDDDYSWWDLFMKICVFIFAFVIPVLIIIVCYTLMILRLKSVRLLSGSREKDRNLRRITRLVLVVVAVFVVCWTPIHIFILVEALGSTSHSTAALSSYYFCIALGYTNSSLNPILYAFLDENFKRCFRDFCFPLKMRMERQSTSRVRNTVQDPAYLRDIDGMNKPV

SMILES | inhibition
COc1cc([N+](=O)[O-])c(OC)cc1SCc1n[nH]c(=S)n1-c1ccc(C)cc1 | 73.3%
CN(C)c1ccc(-n2nnnc2SCc2ccc(Cl)cc2)cc1 | 26% (inactive)
CC(=O)c1sc2nc(-c3cccs3)cc(C(F)(F)F)c2c1N | 11.3% (inactive)
S=C(NNc1c(Cl)cncc1Cl)Nc1ccc(Cl)cc1Cl | 51.8% (inactive)
CCOC(=O)[C@@H](N)CCSC | -3.43% (inactive)
CS(=O)(=O)/C(C#N)=C\c1ccc(Cl)s1 | 4.17% (inactive)
Clc1ccc2c(Nc3ccc4c(c3)OCO4)ccnc2c1 | 30% (inactive)
O=C(Nc1ccc(Cl)cc1Cl)c1cc([N+](=O)[O-])cc2c1-c1ccc([N+](=O)[O-])cc1C2=O | 59.2%
O=[N+]([O-])c1ccc(N/N=C2\CCOc3ccc(F)cc32)cc1 | 25.4% (inactive)
O=C(c1cnn(-c2ccc(Cl)cc2)c1C(F)(F)F)N1CCN(c2ncnc3ccsc23)CC1 | 79%
CC1COC(c2cccc([N+](=O)[O-])c2)N1 (stereo unspecified) | -9.85% (inactive)
COc1ccc(OS(=O)(=O)c2sc(Br)cc2Br)cc1 | 36.2% (inactive)
CC(=O)Nc1onc(C)c1-c1nc(-c2ccc(Cl)cc2Cl)cs1 | -1.54% (inactive)
O=C(NNC(=O)C(F)(F)F)c1ccc[nH]1 | 9.13% (inactive)
N#Cc1cccc(C#N)c1Oc1ccc(N)cc1 | -6.85% (inactive)
CSc1sc(C(=O)NC(=O)Nc2ccc(Cl)cc2)c2c1-c1nocc1CC2 | 15.4% (inactive)

SMILES | inhibition
C#Cc1cccc(NC(=O)c2sc3nc4c(c(-c5cccs5)c3c2N)CCCC4)c1 | 31.7% (inactive)
Brc1ccc(-c2csc(Nc3ccncc3)n2)cc1 | 34.9% (inactive)
CCOC(=O)c1cn[nH]c1NC(=S)Nc1cccc(C(F)(F)F)c1 | 46.6% (inactive)
NC(=NC(=O)c1cccc(C(F)(F)F)c1)c1ccc(C(F)(F)F)cn1 | 41.2% (inactive)
O=[N+]([O-])c1ccc(-c2ccc(/C=N/NC(=S)Nc3cccc(F)c3)o2)cc1 | 60.3%
O=[N+]([O-])c1ccc(N/N=C/c2ccc(-c3cccs3)s2)nc1 | 71.3%
Clc1ccc2nc3c(nc2c1)Nc1ccccc1S3 | 80.7%
O=C(O)C(F)(F)C(F)(F)C(=O)NCc1cccc(Cl)c1 | 0.14% (inactive)
CCCCNc1ccc2c3c(cccc13)C(=O)N(CCCC)C2=O | 76.8%
N#Cc1c(S/C=C(\O)c2cc3ccccc3o2)nc2c(c1C(F)(F)F)CCCC2 | 15.3% (inactive)
O=C(Nc1ccc(F)c(Cl)c1)c1cc(Br)ccc1O | 62.9%
COC(=O)/C=C1\SC(=Nc2ccc(Cl)cc2)N(c2ccc(Cl)cc2)C1=O | 57.8%
CCCCCCCCCCCC(=O)ON1C(=O)CCC1=O | 36.2% (inactive)
Oc1c(Cl)cc(Cl)cc1C1Nc2cc(Cl)c(C(F)(F)F)cc2N1 (stereo unspecified) | 58.8%
O=[N+]([O-])c1c(Sc2ccc(Cl)cc2)ccc2nsnc12 | 37.2% (inactive)
CSc1ccc(/C=C/c2onc(C)c2[N+](=O)[O-])s1 | 23% (inactive)

Results, then the compound that gave them:

inhibition | SMILES
34.5% (inactive) | COc1cccc(/C=C(\C#N)c2ccc([N+](=O)[O-])cc2)c1OC
82.9% | O=[N+]([O-])c1ccc(C2=NN(c3ccccc3)C(c3ccco3)C2)cc1 (stereo unspecified)
95.2% | CCOC(=O)c1cc(C(=O)OC)c(C)nc1N1CCC(NC2CCCCC2O)CC1 (stereo unspecified)
2.74% (inactive) | COc1cccc(C(=O)c2sc3nsc(SCc4ccc(F)cc4)c3c2N)c1
12% (inactive) | COC(=O)c1ccc(/C=C2\C(=O)Nc3ccccc32)n1-c1ccc(F)cc1
49.6% (inactive) | CCN(CC)c1ccc(/C=C/c2ccc([N+](=O)[O-])cc2C#N)cc1
58.2% | CN(C)c1cccc2c1c(NC(=O)Nc1ccc(OCc3ccccc3)cc1)nn2C
59.5% | COc1ccccc1C1CCN(Cc2ccc3c(c2)CCC(C)(C)O3)CC1
0.7% (inactive) | CCOC(=O)C1CCN(Cc2cccc(NC(=O)c3cccs3)c2)CC1
43.7% (inactive) | CN(C)c1cc(NC(=O)Nc2ccccc2)c2ccccc2n1
-2.3% (inactive) | O=C(Nc1ccc([N+](=O)[O-])cc1)Nc1csc(-c2cccnc2)n1
82.8% | O=[N+]([O-])c1ccc(-c2ccc(/C=N/Nc3ccccc3)o2)cc1
58.9% | Cn1c(=O)c2cc3cc(Cl)ccc3nc2c2c(=O)n(-c3ccccc3)c(=O)n(-c3ccccc3)c21
17.4% (inactive) | O=[N+]([O-])c1ccc(N2CCc3ccccc32)cc1
9.35% (inactive) | O=C1c2ccc(Cl)c3c(N4CCSCC4)ccc(c23)C(=O)N1c1ccccc1
77.2% | Nc1c(C(=O)N/N=C/c2ccc3c(c2)OCO3)sc2nnc(-c3ccccc3)c(-c3ccccc3)c12
58.7% | O=C(N/C(=C\c1ccc(-c2ccc([N+](=O)[O-])cc2)o1)c1nc2ccccc2[nH]1)c1ccccc1

inhibition | SMILES
30.5% (inactive) | C=CCn1c(-c2sc3nnc(-c4ccccc4)c(-c4ccccc4)c3c2N)n[nH]c1=S
49% (inactive) | CCOC(=O)c1ccc(N2CC3CCCCN3C2c2cccc(OC)c2O)cc1 (stereo unspecified)
11.6% (inactive) | C=CCNC(=S)NNC(=O)c1oc2nc(-c3ccc(Cl)cc3)cc(-c3ccccc3)c2c1N
79.5% | CCCCCC[n+]1ccccc1/C=C/c1ccc(N(C)C)cc1
18.1% (inactive) | COc1ccc([N+](=O)[O-])c(S(=O)(=O)c2ccc(Cl)cc2)n1
7.76% (inactive) | CC(CCC(C)OC(=O)c1ccccc1C(=O)O)OC(=O)c1ccccc1C(=O)O (stereo unspecified)
3.84% (inactive) | O=c1c2cc(-c3ccccc3)sc2nnn1/N=C/c1cccs1
3.67% (inactive) | COC(=O)c1cnn(-c2ccc(Cl)cc2)c1C=C(C#N)C#N
-11.1% (inactive) | CC(=O)N1CCC(C(=O)O/N=C(\N)c2ccc(Cl)cc2)CC1
62.5% | N#Cc1cccnc1NNC(=O)COCC(=O)O
68.6% | COC(=O)c1cc(-c2ccc(OC)cc2)c(-c2ccc(OC)cc2)s1
5.32% (inactive) | Cc1ccc(/C=c2\sc3nc4ccccc4n3c2=O)o1
43.2% (inactive) | Nc1c(C(=O)c2ccccc2)sc2nsc(SCCN3CCCC3)c12
35.5% (inactive) | CCOC(=O)C1CCN(Cc2cccc(NC(=O)c3ccco3)c2)CC1
-5.98% (inactive) | c1ccc(-c2cc3ncnc(NCc4ccc5c(c4)OCO5)c3s2)cc1
59.6% | COc1ccccc1NC(=O)NCCN1CCN(Cc2ccccc2)CC1
20.3% (inactive) | O=C(/C=C/c1cc(-c2ccccc2)c(C(F)(F)F)s1)c1cccs1
